Data on 16 compounds can be found in patent US4791114A, “2-Benzimidazolylalkylthio (or -sulfinyl or -sulfonyl) derivatives, their preparation and their application as medicinal products” (501 Laboratorios Del, Dr. Esteve, priority 1986, dated 1988).

Structures are written as SMILES.

Tested on in the first data set: not listed separately
In words: Acute toxicity in mice (oral LD50, Litchfield and Wilcoxon). To be noted: mouse, in vivo, female mice, suspended in 5% gum arabic. The procedure:
Method of Litchfield and wilcoxon [Litchfield, J. T. and Wilcoxon, E. J., H. Pharmacol. Exp. Therap., 96, 19-113 (1949)].
The product is administered orally, suspended in 5% gum arabic in double-distilled water. The volume administered is 10 ml/kg. The fifty percent lethal dose (LD50) is calculated according to the method cited.
For the compound `c1cnc(SCc2nc3ccccc3[nH]2)nc1` [Example 1, 2-(2-benzimidazolylmethylthio)pyrimidine], the LD50 was determined as 2700 mg/kg.

In turn, `Cc1cc(C)nc(SCc2nc3ccccc3[nH]2)n1` [Example 3] returned an LD50 above 3200 mg/kg.

`O=C(c1ccccc1)c1ccc2nc(C[S+]([O-])c3ccccn3)[nH]c2c1` (centres unmarked) [Example 27, 5-benzoyl-2-(2-pyridylsulfinylmethyl)benzimidazole] registered an LD50 of 3200 mg/kg.

Turning to `[O-][S+](Cc1nc2ccccc2[nH]1)c1ccccn1` (centres unmarked) [Example 28, 2-(2-pyridylsulfinylmethyl)benzimidazole], the LD50 was 3200 mg/kg.

In turn, `O=[N+]([O-])c1ccc([S+]([O-])Cc2nc3ccccc3[nH]2)nc1` (centres unmarked) [Example 29] came in with an LD50 of 2400 mg/kg.

Compound `Cc1cc2nc(C[S+]([O-])c3ccccn3)[nH]c2cc1C` (centres unmarked) [Example 31] showed an LD50 above 6400 mg/kg.

The same data set, now with this note: mouse, in vivo, male mice, suspended in 5% gum arabic.
Compound `c1cnc(SCc2nc3ccccc3[nH]2)nc1` [Example 1, 2-(2-benzimidazolylmethylthio)pyrimidine] came in with an LD50 of 3200 mg/kg.

`Cc1cc(C)nc(SCc2nc3ccccc3[nH]2)n1` [Example 3] returned an LD50 above 3200 mg/kg.

With `O=C(c1ccccc1)c1ccc2nc(C[S+]([O-])c3ccccn3)[nH]c2c1` (centres unmarked) [Example 27, 5-benzoyl-2-(2-pyridylsulfinylmethyl)benzimidazole], the LD50 worked out at 3200 mg/kg.

`[O-][S+](Cc1nc2ccccc2[nH]1)c1ccccn1` (centres unmarked) [Example 28, 2-(2-pyridylsulfinylmethyl)benzimidazole] returned an LD50 of 3200 mg/kg.

On to `O=[N+]([O-])c1ccc([S+]([O-])Cc2nc3ccccc3[nH]2)nc1` (centres unmarked) [Example 29], for which the LD50 stood at 2400 mg/kg.

`Cc1cc2nc(C[S+]([O-])c3ccccn3)[nH]c2cc1C` (centres unmarked) [Example 31]: the LD50 is above 6400 mg/kg.

For the next data set, the system named is gastric acid secretion. In words: Inhibition of gastric acid secretion in Shay rats (pylorus ligation). Particulars: Rattus norvegicus, 2 h, intraduodenal, two hours after pylorus ligation. The class given is in vivo, male Wistar rats. An excerpt:
Method of Shay [Shay, H.; Komarov, S. A.; Feis, S. S.; Merange, D.; Grvenstein, M.; Siplet, H.; Gastroenterology, 5, 43 (1945)--Visscher, F. E.; Seay, P. H.; Taxelaar, A. P.; Veldkamp, W.; Vander Brook, M. J.; J. Pharmac. Exp. Ther., 110, 188 (1954)--"Animal Experiments in Pharmacological Analysis", F. R. Domer; C. C. Thomas Pub., Springfield, Ill., USA, 1970, p. 140].
In this test, male Wistar rats weighing 200 to 250 grams are used, the animals being maintained fasted from the day preceding that of the trail, with access to water ad libitum. A minimum of 4 animals is used in each batch.
The rats are anesthetized with ethyl ether, laporotomy is performed and the pylorus is ligated, and the abdominal incision is then sutured. The administration of the products, with the vehicle for the control batch, is performed intraduodenally (i.d.) before the abdominal incision is sutured. The dose administered for the first trail is 40 mg/kg, and the fifty percent effectove dose (ED50) i.d. is also determined in a second trial. The vehicle used is 5% w/v gum arabic in double-distilled water.
Two hours after ligation of the pyrolus, the rats are sacrificed by prolonged anesthesia with ethyl ether, and the volume of the gastric juice is measured and the total acidity determined by means of a pH meter equipped with an automatic burette. For each product and for each dose tested, the percentage inhibition of gastric acid secretion is determined relative to the control batch.
Turning to `c1cnc(SCc2nc3ccccc3[nH]2)nc1` [Example 1, 2-(2-benzimidazolylmethylthio)pyrimidine], it took a dose of 13 mg/kg to reach the 50% effect level (ED50).

As for `Cc1cc(C)nc(SCc2nc3ccccc3[nH]2)n1` [Example 3], the 50% effect level (ED50) was put at a dose of 16 mg/kg.

The compound `O=[N+]([O-])c1ccc(SCc2nc3ccccc3[nH]2)nc1` [Example 4] had an ED50 of 21 mg/kg.

On to `Cc1cc2nc(CSc3ccccn3)[nH]c2cc1C` [Example 6, 5,6-dimethyl-2-(2-pyridylthiomethyl)benzimidazole], for which the ED50 turned out to be 19 mg/kg.

With `[O-][n+]1ccccc1SCc1nc2ccccc2[nH]1` [Example 7], it took a dose of 19 mg/kg to reach the 50% effect level (ED50).

Take `O=C(c1ccccc1)c1ccc2nc(CSc3ccccn3)[nH]c2c1` [Example 10, 5-benzoyl-2-(2-pyridylthiomethyl)benzimidazole]: the ED50 came out at 14 mg/kg.

For the compound `O=C(c1ccccc1)c1ccc2nc(C[S+]([O-])c3ccccn3)[nH]c2c1` (centres unmarked) [Example 27, 5-benzoyl-2-(2-pyridylsulfinylmethyl)benzimidazole], the ED50 is 7 mg/kg.

In turn, `[O-][S+](Cc1nc2ccccc2[nH]1)c1ccccn1` (centres unmarked) [Example 28, 2-(2-pyridylsulfinylmethyl)benzimidazole] gave an ED50 of 8 mg/kg.

`O=[N+]([O-])c1ccc([S+]([O-])Cc2nc3ccccc3[nH]2)nc1` (centres unmarked) [Example 29] registered an ED50 of 4 mg/kg.

For `Cc1cc2nc(C[S+]([O-])c3ccccn3)[nH]c2cc1C` (centres unmarked) [Example 31], it took a dose of 15 mg/kg to reach the 50% effect level (ED50).

`[O-][S+](Cc1nc2cc(Cl)ccc2[nH]1)c1ccccn1` (centres unmarked) [Example 32] gave an ED50 of 17 mg/kg.

`Cc1cnc([S+]([O-])Cc2nc3cc(C(=O)c4ccccc4)ccc3[nH]2)c(C)c1` (centres unmarked) [Example 41] yielded an ED50 of 10 mg/kg.

Compound `Cc1ccnc([S+]([O-])Cc2nc3cc(C(=O)c4ccccc4)ccc3[nH]2)c1` (centres unmarked) [Example 44] returned an ED50 of 10 mg/kg.

Consider `O=S(=O)(Cc1nc2ccc(Cl)cc2[nH]1)c1ccccn1` [Example 54, 5-chloro-2-(2-pyridylsulfonylmethyl)benzimidazole], for which the ED50 was found to be 24 mg/kg.

With `Cn1c(C[S+]([O-])c2ccccn2)nc2cc(C(=O)c3ccccc3)ccc21` (centres unmarked) [Example 60, 5-benzoyl-1-methyl-2-(2-pyridylsulfinylmethyl)benzimidazole], the ED50 was determined as 21 mg/kg.

As to `CCOC(=O)n1c(C[S+]([O-])c2ccccn2)nc2ccc(C(=O)c3ccccc3)cc21` (centres unmarked) [Example 63, 6-benzoyl-1-carboxyethyl-2-(2-pyridylsulfinylmethyl)benzimidazole], the 50% effect level (ED50) was put at a dose of 16 mg/kg.

The same data set, now with this note: Rattus norvegicus, intraduodenal, 2 h, Dose = 40 mg/kg, i.d., two hours after pylorus ligation, read-out: Percentage inhibition of gastric acid secretion.
Regarding `c1cnc(SCc2nc3ccccc3[nH]2)nc1` [Example 1, 2-(2-benzimidazolylmethylthio)pyrimidine], the inhibition in vivo at 40 mg/kg was found to be 98%.

In the case of `Cc1cc(C)nc(SCc2nc3ccccc3[nH]2)n1` [Example 3], the inhibition in vivo at 40 mg/kg came to 88%.

Take `O=[N+]([O-])c1ccc(SCc2nc3ccccc3[nH]2)nc1` [Example 4]: the inhibition in vivo at 40 mg/kg worked out at 74%.

For the compound `Cc1cc2nc(CSc3ccccn3)[nH]c2cc1C` [Example 6, 5,6-dimethyl-2-(2-pyridylthiomethyl)benzimidazole], the inhibition in vivo at 40 mg/kg amounted to 92%.

For `[O-][n+]1ccccc1SCc1nc2ccccc2[nH]1` [Example 7], the inhibition in vivo at 40 mg/kg amounted to 95%.

In the case of `O=C(c1ccccc1)c1ccc2nc(CSc3ccccn3)[nH]c2c1` [Example 10, 5-benzoyl-2-(2-pyridylthiomethyl)benzimidazole], the inhibition in vivo at 40 mg/kg is 93%.

For `O=C(c1ccccc1)c1ccc2nc(C[S+]([O-])c3ccccn3)[nH]c2c1` (centres unmarked) [Example 27, 5-benzoyl-2-(2-pyridylsulfinylmethyl)benzimidazole], the inhibition in vivo at 40 mg/kg was determined as 95%.

For the compound `[O-][S+](Cc1nc2ccccc2[nH]1)c1ccccn1` (centres unmarked) [Example 28, 2-(2-pyridylsulfinylmethyl)benzimidazole], the inhibition in vivo at 40 mg/kg came out at 90%.

For the compound `O=[N+]([O-])c1ccc([S+]([O-])Cc2nc3ccccc3[nH]2)nc1` (centres unmarked) [Example 29], the inhibition in vivo at 40 mg/kg turned out to be 90%.

For the compound `Cc1cc2nc(C[S+]([O-])c3ccccn3)[nH]c2cc1C` (centres unmarked) [Example 31], the inhibition in vivo at 40 mg/kg stood at 96%.

With `[O-][S+](Cc1nc2cc(Cl)ccc2[nH]1)c1ccccn1` (centres unmarked) [Example 32], the inhibition in vivo at 40 mg/kg worked out at 92%.

Regarding `Cc1cnc([S+]([O-])Cc2nc3cc(C(=O)c4ccccc4)ccc3[nH]2)c(C)c1` (centres unmarked) [Example 41], the inhibition in vivo at 40 mg/kg is 80%.

On to `Cc1ccnc([S+]([O-])Cc2nc3cc(C(=O)c4ccccc4)ccc3[nH]2)c1` (centres unmarked) [Example 44], for which the inhibition in vivo at 40 mg/kg was determined as 66%.

Regarding `O=S(=O)(Cc1nc2ccc(Cl)cc2[nH]1)c1ccccn1` [Example 54, 5-chloro-2-(2-pyridylsulfonylmethyl)benzimidazole], the inhibition in vivo at 40 mg/kg worked out at 70%.

Consider `Cn1c(C[S+]([O-])c2ccccn2)nc2cc(C(=O)c3ccccc3)ccc21` (centres unmarked) [Example 60, 5-benzoyl-1-methyl-2-(2-pyridylsulfinylmethyl)benzimidazole], for which the inhibition in vivo at 40 mg/kg turned out to be 75%.

In the case of `CCOC(=O)n1c(C[S+]([O-])c2ccccn2)nc2ccc(C(=O)c3ccccc3)cc21` (centres unmarked) [Example 63, 6-benzoyl-1-carboxyethyl-2-(2-pyridylsulfinylmethyl)benzimidazole], the inhibition in vivo at 40 mg/kg was 81%.

In general, LD50 refers to the dose expected to kill half of the subjects tested. Low values mean a more toxic substance, high ones a less toxic substance. By ED50 is commonly meant the dose that gives a 50% effect, or the effect in half of the subjects. A lower ED50 goes with greater potency.
